Several values for one entry are separate records, joined by “and”; a condition that tells them apart may be missing. Equal entries are not always repeated.
Columns and labels:
[1] = set-up: species or system mice; conditions: mouse, in vivo, iv
haptoglobin protein [2] = experiment: Liver haptoglobin protein (ELISA); type: in vivo, CD-1 mice; set-up: unit not given beside the values
Protocol: (§1) Thirty-two mice were divided into 4 equal groups: (1) control mice; (2) mice treated with 1 mg of N-Mgb injection (as a bolus through the tail vein); (3) mice treated with […] of SnPP (via tail vein); and (4) mice treated with combined N-Mgb 1 SnPP. After either 4 hours (n=16) or 18 hours (n=16), the mice were deeply anesthetized with pentobarbital (50 mg/kg), the abdomen was opened through a midline abdominal incision, and the kidneys were removed. To determine potential effects on extrarenal organs, a liver lobe and the heart were also removed. The tissues were iced and then extracted for protein and RNA (RNeasy Plus Mini; Qiagen, Valencia, Calif.) and subjected to enzyme linked immunosorbent assay (ELISA) and reverse transcriptase polymerase chain reaction (RT-PCR) for HO-1, haptoglobin, and IL-10 protein and messenger RNAs (mRNAs). Zager et al. J Am Soc Nephrol 2014; 25:998-1012; Zager et al. Am J Physiol 2012; 303:F139-48. As an assessment of renal function, control mice and the 18 hour after N-Mgb+SnPP-treated mice had blood urea nitrogen (BUN) and plasma creatinine levels measured. Additionally, transverse 10% formalin fixed kidney sections ([…]) were cut and stained with hematoxylin and eosin (H&E) and periodic acid Schiff (PAS) to further assess potential injury.

haptoglobin protein [3] = experiment: Kidney haptoglobin protein (ELISA); type: in vivo, CD-1 mice
Protocol: as §1

haptoglobin mRNA [4] = experiment: SnPP vs. SnMeP: renal cortical haptoglobin mRNA induction (RT-PCR); type: in vivo, mice; conditions: 1 umole, 4 hrs post injection, n 3
Text: FIG. 28. Comparison of SnPP vs. SnMeP effects on renal cortical HO-1 and haptoglobin mRNA induction 4 hrs post agent injection. Mice received either 1 umole tin protoporphyrin (SnPP), tin mesoporphyrin (SnMeP), or vehicle (n, 3 each) and 4 hrs renal cortical RNA was extracted and subjected to RT-PCR.

HO-1 mRNA [5] = experiment: Kidney HO-1 mRNA (RT-PCR); type: in vivo, CD-1 mice
Protocol: as §1

HO-1 protein [6] = experiment: Kidney HO-1 protein (ELISA); type: in vivo, CD-1 mice
Protocol: as §1

haptoglobin mRNA [7] = experiment: Cardiac haptoglobin mRNA (RT-PCR); type: in vivo, CD-1 mice
Protocol: as §1

HO-1 mRNA [8] = experiment: Renal HO-1 mRNA (RT-PCR, HO-1/GAPDH) after IV myoglobin, SnPP or both; type: in vivo, CD-1 mice; conditions: kidney, 4 hr post IV injection
Text: The Glycerol Model of AKI. This is a widely used model of rhabdomyolysis-induced AKI that has been employed worldwide for 50 years. The model was used to test whether prophylactic interventions confer protection against AKI. Basically, the protocol is as follows: Male CD-1 mice (35-45 grams), obtained from Charles River Laboratories, Wilmington, Mass. were studied. Mice were maintained under standard vivarium conditions and generally housed for 1-3 weeks prior to study. The mice were placed in a cylindrical restraining cage, and then were given a tail vein injection of the test substances (see below) or test substance vehicle. The mice were then returned to their cages. Eighteen hours (hrs) later, the mice were briefly anesthetized by isoflurane inhalation, and given an intramuscular injection of hypertonic (50%) glycerol in a dose of 9 ml/Kg body weight. The dose is divided in two, with half injected into the muscle of each of the hind limbs. The mice were then returned to their cages. Eighteen hrs later, the mice were deeply anesthetized with pentobarbital (50-100 mg/Kg), the abdominal cavity was opened through a midline abdominal incision, a blood sample was obtained from the abdominal vena cava and the kidneys were resected. A kidney cross section was obtained and fixed in formalin for subsequent histologic analysis. The terminal blood samples were analyzed for BUN and creatinine, using commercially available assay kits. The remaining kidney tissue was subjected to cortical dissection, and the cortical tissues were then extracted for protein and RNA. The protein samples were saved for analysis of HO-1 levels, and the RNA samples were subjected to RT-PCR to quantify HO-1 mRNA as well as levels of other stress gene mRNAs (e.g. NGAL, haptoglobin, hemopexin, hepicidin).
Myoglobin+SnPP: To 5 mg of dry myoglobin was added 0.9 ml of PBS+0.1 ml of a stock SnPP solution (50 umole/ml). The resulting final concentrations were 5 mg/ml myoglobin+5 umoles/ml of SnPP. The tail vein was injected with 200 ul of this solution, which equals 1 mg myoglobin+1 umole SnPP. […]
[…] To confirm that the myoglobin+SnPP has a synergistic effect in inducing HO-1 mRNA and HO-1 protein levels, each of the above combinations have been administered alone via tail vein injection. […] For additional information regarding methods, see Zager et al., Am J Physiol Renal Physiol. 2014 Jul. 30. Pii.

HO-1 mRNA [9] = experiment: Cardiac HO-1 mRNA (RT-PCR); type: in vivo, CD-1 mice
Protocol: as §1

IL-10 mRNA = experiment: Liver IL-10 mRNA (RT-PCR); type: in vivo, CD-1 mice
Protocol: as §1

haptoglobin mRNA [10] = experiment: Kidney haptoglobin mRNA (RT-PCR); type: in vivo, CD-1 mice
Protocol: as §1

IL-10 protein = experiment: Kidney IL-10 protein (ELISA); type: in vivo, CD-1 mice
Protocol: as §1

HO-1 protein [11] = experiment: Cardiac HO-1 protein (ELISA); type: in vivo, CD-1 mice; conditions: 18 h after IV injection
Protocol: as §1

HO-1 protein [12] = experiment: Liver HO-1 protein (ELISA); type: in vivo, CD-1 mice; set-up: unit not given beside the values
Protocol: as §1

[13] = 4 h after IV injection, N-Mgb 1 mg, SnPP 1 mmol [sic]

C=Cc1c2[n-]c(c1C)/C=c1\[n-]/c(c(C)c1C=C)=C\c1[n-]c(c(CCC(=O)O)c1C)/C=c1\[n-]c(c(C)c1CCC(=O)O)=C2.[Sn+4] [SnPP, tin protoporphyrin]
Plasma LDH, Average [1]: 4.51 Absorbance U LDH/ml
Liver protein Haptoglobin (haptoglobin protein [2]; 4 h after IV injection): 130.0 ± 8.9
Liver protein Haptoglobin (haptoglobin protein [2]; 18 h after IV injection): 212.0 ± 63.6
Kidney Haptoglobin protein (haptoglobin protein [3]; [13]): 13.1 ± 1.3
Kidney protein Haptoglobin (haptoglobin protein [3]; 18 h after IV injection): 53.5 ± 17.2
Renal cortical haptoglobin mRNA induction (haptoglobin mRNA [4]): raised
Kidney mRNA HO-1 (HO-1 mRNA [5]; [13]): 4.38 ± 0.28
Renal HO-1 mRNA increase, in words (HO-1 mRNA [5]; 4 hour, agent alone): only modest increases
Kidney mRNA cortex HO-1 (HO-1 mRNA [5]; 18 h after IV injection): 0.63 ± 0.06
Renal HO-1 protein increase, in words (HO-1 protein [6]; 18-hour time point, agent alone): only relatively small HO-1 protein increases
Kidney HO-1 protein (HO-1 protein [6]; [13]): 22.9 ± 2.6
Kidney protein HO-1 (HO-1 protein [6]; 18 h after IV injection): 18 ± 2
Cardiac mRNA Haptoglobin (haptoglobin mRNA [7]; 4 h after IV injection): 0.52 ± 0.21
Cardiac mRNA Haptoglobin (haptoglobin mRNA [7]; 18 h after IV injection): 0.59 ± 0.17
HO-1/GAPDH mRNA, Average (HO-1 mRNA [8]): 6.94
HO-1/GAPDH mRNA, individual mice (HO-1 mRNA [8]): 9.72 and 8.25 and 6.95 and 2.85
Cardiac mRNA HO-1 (HO-1 mRNA [9]; 4 h after IV injection): 0.14 ± 0.01
Cardiac mRNA HO-1 (HO-1 mRNA [9]; 18 h after IV injection): 0.09 ± 0.03
Liver mRNA IL-10 (IL-10 mRNA; 4 h after IV injection): 0.14 ± 0.1
Liver mRNA IL-10 (IL-10 mRNA; 18 h after IV injection): 0.05 ± 0.01
Kidney mRNA Haptoglobin (haptoglobin mRNA [10]; [13]): 0.19 ± 0.01
Kidney mRNA cortex Haptoglobin (haptoglobin mRNA [10]; 18 h after IV injection): 0.23 ± 0.08
Kidney IL-10 protein (IL-10 protein; [13]): 550 ± 86
Kidney protein IL-10 (IL-10 protein; 18 h after IV injection): 454 ± 51
Renal IL-10 protein increase, in words (IL-10 protein; 18 hours, agent alone): absence of IL-10 protein increases
Cardiac protein HO-1 (HO-1 protein [11]): 2.67 ± 0.4
Liver protein HO-1 (HO-1 protein [12]; 4 h after IV injection): 7.4 ± 0.7
Liver protein HO-1 (HO-1 protein [12]; 18 h after IV injection): 18 ± 2.5

From patent US20190358242A1, “COMPOSITIONS, KITS, AND METHODS TO INDUCE ACQUIRED CYTORESISTANCE USING STRESS PROTEIN INDUCERS” (FRED HUTCHINSON CANCER RESEARCH CENTER, priority 2017, published 2019)
